From patent EP4527843A1, “STEREOISOMERIC PHOSPHATIDYLOLIGOGLYCEROL” (Thermosome GmbH, priority 2023, dated 2025) come the findings set out here.

Like-named read-outs stand apart in the source and are kept apart here.

One data set deals with T1, Phospholipase A2 (Sus scrofa, UniProt P00592).
T1 construct: commercially available enzyme (extracted from porcine pancreas) was used; purchased; host or cells: porcine pancreas (tissue extract)
As to the kind of experiment: Stereospecific cleavage of DPPG2 with Phospholipase A2 (HPLC/CAD). In kind it is in vitro ADME, porcine. The conditions noted are these: 0.5 U enzyme; for DPPG2 still detectable in the sample: after 10 min, 2 µmol lipid, Tris-buffer pH 8.5 with CaCl2, 37°C, normalized to t=0 min. Here is the method:
Phospholipases are enzymes that selectively cleave bonds in glycerophospholipids based on their stereochemistry. They play a role in the metabolization of glycerophospholipids in vivo. Phospholipase A2 hydrolyzes 1,2-acyl-sn-glycero-3-phospholipids to their 1-acyl-sn-glycero-3-phospholipid and the corresponding fatty acid. For the experiments, commercially available enzyme (extracted from porcine pancreas) was used. Lipid samples (2 µmol) were dissolved 1.5 wt% deoxycholate and subsequently incubated in Tris-buffer pH 8.5 supplemented with CaCl2 together with 0.5 U enzyme in a thermoshaker at 37°C. At distinct time points, samples were taken and cleavage was analyzed by HPLC. […] The analytes are separated using a gradient elution using 100 mM NH4Ac pH 6.0 in water and methanol as eluent A and eluent B, respectively. Column oven was set to 35°C.
Three DPPG2 batches differing in configurations of the stereogenic centers in their diglycerol headgroup were tested and DPPC was applied as control glycerophospholipid (Figure 2). […] After 10 min, 14.8%, 20.4%, and 24.3% of DPPG2 according to WO 9730058, WO 2014/202680 A1, and Formula III, respectively, was still detectable in the sample.

For data set [1], the system named is BN175 tumor (soft tissue sarcoma). The following applies: 2 mg/kg DOX single i.v. bolus in combination with 60 min lamp HT (41°C); ranking in words.
Description: Finally, the therapeutic efficacy of both DPPG2-TSL-DOX formulations was investigated in vivo and compared to selected clinically relevant DOX formulations (e.g., non-liposomal DOX, Caelyx). […] All animals had one BN175 tumor (soft tissue sarcoma) s.c. implanted to one hind leg. Local HT treatment was performed with a light source. Target temperature was 41 °C. Animals were preheated to this temperature for 30 min and temperature was maintained at 41 °C for 60 min after i.v. bolus injection. Animals treated with a DOX formulation received 2 mg/kg DOX as single i.v. bolus injection after one tumor diameter was > 5 mm. After the end of the treatment, animals were placed back into a cage and tumor growth was monitored every 2nd day until reaching an end point (e.g., tumor diameter > 3 cm, exulzeration, bleeding, skin toxicity).
The nature of data set [2]: PK study in healthy rats after i.v. bolus, normothermia. In kind it is in vivo, Brown Norway rats. The following applies: 2 mg/kg DOX i.v. bolus, rat; result in words. Here is the method: For the PK study, 18 anaesthetized healthy male Brown Norway rats (-300 g) received a dose of 2 mg/kg DOX of either non-liposomal DOX (n = 6), DPPG2-TSL-DOX (DPPG2 according to formula III) (n = 6), or DPPG2-TSL-DOX (DPPG2 according to WO 97/30059) (n = 6) as i.v. bolus injection, respectively. Body temperature of the animals was controlled via a rectal temperature probe. During anesthesia, the body temperature of animals was maintained by a water bath (37°C). Blood samples were taken at defined time points. DOX and DPPG2 content were measured in plasma by HPLC equipped with a fluorescence detector and LC/MS, respectively.

Data set [3] can be described thus: Accumulation of DOX in tumor tissue and organs, rat BN175 sarcoma model. The conditions noted are these: male, Brown Norway, rat, 60 min after i.v. bolus 2 mg/kg DOX. Type of data set: in vivo, Brown Norway rats.
Description: (§1) Eighteen anaesthetized tumor-bearing male Brown Norway rats (-300 g) received a dose of 2 mg/kg DOX of either non-liposomal DOX (n = 6), DPPG2-TSL-DOX (DPPG2 according to formula III) (n = 6), or DPPG2-TSL-DOX (DPPG2 according to WO 97/30059) (n = 6) as i.v. bolus injection, respectively. All animals had two BN175 tumors (soft tissue sarcoma) subcutaneously implanted to each hind leg, respectively. One tumor received 60 min of a local HT treatment with a light source of 41.5°C, whereas the second tumor remained untreated (room temperature, NT). […] Animals were sacrificed after 60 min, organs were perfused, and tumors and organs were collected. DOX content was measured in plasma by HPLC equipped with a fluorescence detector.
The test system of data set [4] is BN175 tumors (soft tissue sarcoma). The data set is described as above. In kind it is in vivo, Brown Norway rats.
Description: as §1

T1 sequence (P00592 23-146): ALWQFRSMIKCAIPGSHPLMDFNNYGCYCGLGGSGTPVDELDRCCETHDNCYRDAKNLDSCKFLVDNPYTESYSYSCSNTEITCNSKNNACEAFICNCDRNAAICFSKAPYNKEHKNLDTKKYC

Turning to `CCCCCCCCCCCCCCCC(=O)OC[C@H](COP(=O)(O)OCC(O)COCC(O)CO)OC(=O)CCCCCCCCCCCCCCC` (mixture of isomers) [DPPG2 according to WO 9730058, 1,2-Dipalmitoyl-sn-glycero-3-phospho-rac-diglycerol], the “DPPG2 still detectable in the sample” value on Phospholipase A2 amounted to 14.8%.

Regarding `CCCCCCCCCCCCCCCC(=O)OC[C@H](COP(=O)([O-])OCC[N+](C)(C)C)OC(=O)CCCCCCCCCCCCCCC` [DPPC, 1,2-dipalmitoyl-sn-glycero-3-phosphocholine], the “cleavage by phospholipase A2 compared with DPPG2” value at Phospholipase A2 (control glycerophospholipid, 37°C) is recorded as “cleaved notably slower than DPPG2”.

Regarding `CCCCCCCCCCCCCCCC(=O)OC[C@H](COP(=O)(O)OC[C@@H](O)COC[C@H](O)CO)OC(=O)CCCCCCCCCCCCCCC` [DPPG2 according to Formula III, 1,2-dipalmitoyl-sn-glycero-3-phospho-sn-1'-glycero-sn-3"-glycerol], the “DPPG2 still detectable in the sample” value at Phospholipase A2 worked out at 24.3%.

Take `CCCCCCCCCCCCCCCC(=O)OC[C@H](COP(=O)(O)OC[C@@H](O)COCC(O)CO)OC(=O)CCCCCCCCCCCCCCC` (stereo partly shown) [DPPG2 according to WO 2014/202680 A1, 1,2-Dipalmitoyl-sn-glycero-3-phospho-sn-1'-diglycerol]: the “DPPG2 still detectable in the sample” value at Phospholipase A2 came out at 20.4%.

On to `COc1cccc2c1C(=O)c1c(O)c3c(c(O)c1C2=O)C[C@@](O)(C(=O)CO)C[C@@H]3O[C@H]1C[C@H](N)[C@H](O)[C@H](C)O1` [non-liposomal DOX, doxorubicin], for which, in data set [1], the “survival (Kaplan-Meier, 5-fold increase in tumor volume) / therapeutic efficacy” value is listed as “comparable”. The DOX plasma clearance entry in data set [2] is on record as “cleared within minutes”. Besides, the concentration at 60 min in data set [3] (heated BN175 tumor (HT 41.5°C), iv, HT 41.5°C, read-out: DOX concentration in the heated tumors) worked out at 3100 ± 500 ng/g; in data set [3] (untreated BN175 tumor (NT, iv), NT, room temperature, read-out: DOX concentration in the untreated tumors) it was 1900 ± 300 ng/g. Further, the “DOX accumulation in lung and heart compared to both DPPG2-TSL-DOX formulations” value in data set [4] (60 min after i.v. bolus 2 mg/kg DOX, result in words) was “significantly higher”. In data set [4] (60 min local HT 41.5°C light source vs untreated tumor, 2 mg/kg DOX i.v.), the “increase of DOX tumor accumulation by HT application (compared to the content in the untreated tumors)” value is on record as 1.6 fold.
